PMC9795544, “Identifying Novel Inhibitors for Hepatic Organic Anion Transporting Polypeptides by Machine Learning-Based Virtual Screening” (Journal of Chemical Information and Modeling, 2022)
Several values for one entry are separate records, joined by “and”; a condition that tells them apart may be missing. Identical values can stand only once. Like-named read-outs stand apart in the source and are kept apart here.

Assays:
Assay type in all cases: cell-based
OATP1B1 = biological target: T1, OATP1B1 (Homo sapiens, UniProt Q9Y6L6); test: Pyranine transport inhibition in A431 cells overexpressing OATP1B1
T1 construct: expressed in transfected cells; host or cells: A431 cells
T1 sequence (Q9Y6L6 1-691): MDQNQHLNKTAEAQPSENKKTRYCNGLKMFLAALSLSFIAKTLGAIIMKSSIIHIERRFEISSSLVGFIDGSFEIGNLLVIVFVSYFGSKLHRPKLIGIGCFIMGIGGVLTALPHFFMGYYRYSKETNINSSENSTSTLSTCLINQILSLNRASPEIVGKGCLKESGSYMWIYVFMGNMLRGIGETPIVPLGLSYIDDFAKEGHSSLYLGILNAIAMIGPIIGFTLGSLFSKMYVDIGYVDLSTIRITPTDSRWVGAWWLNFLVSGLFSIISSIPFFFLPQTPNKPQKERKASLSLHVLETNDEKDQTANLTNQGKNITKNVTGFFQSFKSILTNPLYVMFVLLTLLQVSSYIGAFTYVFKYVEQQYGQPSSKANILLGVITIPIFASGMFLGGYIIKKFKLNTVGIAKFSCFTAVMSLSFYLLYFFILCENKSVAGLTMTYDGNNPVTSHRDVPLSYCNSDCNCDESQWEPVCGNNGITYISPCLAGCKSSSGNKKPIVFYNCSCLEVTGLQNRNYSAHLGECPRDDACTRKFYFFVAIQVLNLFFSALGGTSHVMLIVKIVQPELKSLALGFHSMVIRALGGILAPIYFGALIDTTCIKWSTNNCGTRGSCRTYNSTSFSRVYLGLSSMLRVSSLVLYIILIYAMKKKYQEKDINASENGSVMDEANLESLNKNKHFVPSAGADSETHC
Method: (§1) A431 cells overexpressing OATP1B1, OATP1B3, or OATP2B1 or their mock transfected controls were generated previously[30] and maintained in Dulbecco’s modified Eagle medium (DMEM, Gibco, Thermofisher Scientific, Waltham, MA, US) supplemented with 10% fetal bovine serum, 2 mM L-glutamine, 100 units/mL penicillin, and 100 μg/mL streptomycin. Expression and function of OATPs in the cell lines were checked regularly.
(§2) Interaction with OATP1B1, OATP1B3, or OATP2B1 was tested in an indirect transport assay using pyranine (8-hydroxypyrene-1,3,6-trisulfonic acid trisodium salt, H1529, Sigma, Merck, Budapest, Hungary) as the test substrate[31],[32] A431 cells overexpressing OATP1B1, OATP1B3, or OATP2B1 or their mock transfected controls were seeded on 96-well plates in a density of 8 × 10^4 cells per well in 200 μL of cell culture medium 1 day prior to the transport measurements. […] The transport reaction was started by the addition of 50 μL of uptake buffer containing pyranine in a final concentration of 10 μM (OATP1B1) or 20 μM (OATP1B3 and OATP2B1), and the cells were further incubated at 37 °C for 15 min (OATP1B1 and OATP2B1) or 30 min (OATP1B3). The reaction was stopped by removing the supernatant. After repeated washing with ice-cold PBS, fluorescence was determined in an Enspire plate reader (PerkinElmer, Waltham, MA) with excitation/emission wavelengths of 460/510 nm. OATP-dependent transport was calculated by extracting fluorescence measured in mock transfected cells and normalized to the fluorescence signal obtained in the absence of the tested compounds (100%). Experiments were repeated in at least three biological replicates.

OATP1B3 = biological target: T2, OATP1B3 (Homo sapiens, UniProt Q9NPD5); test: Pyranine transport inhibition in A431 cells overexpressing OATP1B3
T2 construct: expressed in transfected cells; host or cells: A431 cells
T2 sequence (Q9NPD5 1-702): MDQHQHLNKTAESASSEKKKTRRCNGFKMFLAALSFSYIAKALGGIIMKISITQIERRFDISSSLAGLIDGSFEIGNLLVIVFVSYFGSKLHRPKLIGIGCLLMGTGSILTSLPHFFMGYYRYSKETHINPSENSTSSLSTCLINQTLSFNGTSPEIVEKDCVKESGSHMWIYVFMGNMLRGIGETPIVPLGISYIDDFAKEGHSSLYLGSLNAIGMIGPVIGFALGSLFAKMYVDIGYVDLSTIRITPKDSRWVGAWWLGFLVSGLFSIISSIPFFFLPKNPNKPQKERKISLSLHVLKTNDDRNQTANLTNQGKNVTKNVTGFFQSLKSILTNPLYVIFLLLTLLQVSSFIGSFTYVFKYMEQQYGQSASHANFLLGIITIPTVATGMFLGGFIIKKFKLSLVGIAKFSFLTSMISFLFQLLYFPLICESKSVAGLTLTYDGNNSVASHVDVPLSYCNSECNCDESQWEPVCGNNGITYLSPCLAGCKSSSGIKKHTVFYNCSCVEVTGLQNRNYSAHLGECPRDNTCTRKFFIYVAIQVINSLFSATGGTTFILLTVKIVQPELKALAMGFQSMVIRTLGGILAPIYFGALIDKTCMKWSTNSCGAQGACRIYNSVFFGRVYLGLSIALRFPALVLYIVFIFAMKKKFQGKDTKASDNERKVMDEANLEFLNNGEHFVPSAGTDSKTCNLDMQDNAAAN
Method: as §1, §2

OATP2B1 = biological target: T3, OATP2B1 (Homo sapiens, UniProt O94956); test: Pyranine transport inhibition in A431 cells overexpressing OATP2B1
T3 construct: expressed in transfected cells; host or cells: A431 cells
T3 sequence (O94956 1-709): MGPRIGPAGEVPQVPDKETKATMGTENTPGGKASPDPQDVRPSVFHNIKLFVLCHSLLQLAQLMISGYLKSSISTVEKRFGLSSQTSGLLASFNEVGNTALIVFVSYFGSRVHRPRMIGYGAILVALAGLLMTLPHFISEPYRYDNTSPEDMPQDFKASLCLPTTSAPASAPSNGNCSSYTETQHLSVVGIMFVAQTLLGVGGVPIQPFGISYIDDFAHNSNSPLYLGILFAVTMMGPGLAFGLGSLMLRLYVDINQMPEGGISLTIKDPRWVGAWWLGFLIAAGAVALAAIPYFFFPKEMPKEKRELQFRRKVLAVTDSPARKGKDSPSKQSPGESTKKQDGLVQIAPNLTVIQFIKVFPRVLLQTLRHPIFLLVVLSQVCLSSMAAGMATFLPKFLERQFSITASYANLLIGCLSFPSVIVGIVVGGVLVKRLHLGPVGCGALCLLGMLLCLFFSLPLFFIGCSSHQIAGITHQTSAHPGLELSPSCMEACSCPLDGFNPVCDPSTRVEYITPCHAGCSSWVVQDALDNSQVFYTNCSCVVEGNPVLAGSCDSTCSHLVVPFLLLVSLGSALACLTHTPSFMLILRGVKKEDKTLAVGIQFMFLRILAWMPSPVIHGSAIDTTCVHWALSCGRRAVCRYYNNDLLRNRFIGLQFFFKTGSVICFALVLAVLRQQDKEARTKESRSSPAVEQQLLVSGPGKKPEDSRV
Method: as §1, §2

[1] = initial three-point screen (1, 10, 100 μM), category by concentration needed for 50% inhibition, pyranine 10 μM, 15 min, pH 5.5, read-out: IC50 (μM) OATP1B1
[2] = initial three-point screen (1, 10, 100 μM), category by concentration needed for 50% inhibition, pyranine 20 μM, 30 min, pH 5.5, read-out: IC50 (μM) OATP1B3
[3] = initial three-point screen (1, 10, 100 μM), category by concentration needed for 50% inhibition, pyranine 20 μM, 15 min, pH 5.5, read-out: IC50 (μM) OATP2B1
[4] = initial three-point screen (1, 10, 100 μM), category by concentration needed for 50% inhibition, pyranine 10 μM, 15 min, pH 5.5
[5] = initial three-point screen (1, 10, 100 μM), category by concentration needed for 50% inhibition, pyranine 20 μM, 30 min, pH 5.5
[6] = IC50 (μM) OATP1B3, initial three-point screen (1, 10, 100 μM), category by concentration needed for 50% inhibition, pyranine 20 μM, 30 min, pH 5.5
[7] = IC50 (μM) OATP2B1, initial three-point screen (1, 10, 100 μM), category by concentration needed for 50% inhibition, pyranine 20 μM, 15 min, pH 5.5

Row | SMILES | IC50 (OATP1B1; [1]) [µM] | IC50 (OATP1B3; [2]) [µM] | IC50 (OATP2B1; [3]) [µM] | other results
1 | N#Cc1c(NC(=O)COC(=O)CN2C(=O)NC3(CCc4ccccc43)C2=O)sc2c1CCCCC2 (stereo not drawn) [A2, O=C(COC(=O)CN1C(=O)NC2(CCc3ccccc23)C1=O)Nc4sc5CCCCCc5c4C#N] | 1 to 10 | 1 to 10 | 1 to 10 | 
2 | Cc1occc1-c1nnc(SCC(=O)c2ccc3c(c2)NC(=O)CO3)n1Cc1ccccc1 [A3, Cc1occc1c2nnc(SCC(=O)c3ccc4OCC(=O)Nc4c3)n2Cc5ccccc5] | 1 to 10 | > 10 | 1 to 10 | 
3 | Fc1ccccc1-c1cc(-c2ccccc2)c2c3c(sc2n1)CCCC3 [A4, Fc1ccccc1c2cc(c3ccccc3)c4c5CCCCc5sc4n2] |  |  | > 10 | IC50 (μM) OATP1B1 (OATP1B1; [4]): no effect; IC50 (μM) OATP1B3 (OATP1B3; [5]): no effect
4 | Fc1ccc(C2CC(c3cccs3)=NN2c2nc(-c3ccccc3)c3cc(Cl)ccc3n2)cc1 (stereo not drawn) [A5, Fc1ccc(cc1)C2CC(=NN2c3nc(c4ccccc4)c5cc(Cl)ccc5n3)c6cccs6] |  |  | > 10 | IC50 (μM) OATP1B1 (OATP1B1; [4]): no effect; IC50 (μM) OATP1B3 (OATP1B3; [5]): no effect
5 | O=C(CN1C(=O)NC(Cc2c[nH]c3ccccc23)C1=O)Nc1ccc(OCc2ccccc2)cc1 (stereo not drawn) [A6, O=C(CN1C(=O)NC(Cc2c[nH]c3ccccc23)C1=O)Nc4ccc(OCc5ccccc5)cc4] |  | > 10 | > 10 | IC50 (μM) OATP1B1 (OATP1B1; [4]): no effect
6 | CC(C)(C)c1ncc(NC(=O)c2ccccc2-c2ncc(-c3ccccc3)o2)cn1 [A7, CC(C)(C)c1ncc(NC(=O)c2ccccc2c3oc(cn3)c4ccccc4)cn1] |  |  | 1 to 10 | IC50 (μM) OATP1B1 (OATP1B1; [4]): no effect; IC50 (μM) OATP1B3 (OATP1B3; [5]): Activated
7 | Cc1ccc(NC(=O)C(Sc2nnc3n2CCCCC3)c2ccccc2)cc1Cl (stereo not drawn) [B2, Cc1ccc(NC(=O)C(Sc2nnc3CCCCCn23)c4ccccc4)cc1Cl] |  |  |  | IC50 (μM) OATP1B1 (OATP1B1; [4]): no effect; IC50 (OATP1B3; [6]): > 10 µM; IC50 (OATP2B1; [7]): > 10 µM
8 | O=C(CC12CC3CC(CC(C3)C1)C2)NCC(=O)N1CCN(S(=O)(=O)c2ccccc2F)CC1 [B3, Fc1ccccc1S(=O)(=O)N2CCN(CC2)C(=O)CNC(=O)CC34CC5CC(CC(C5)C3)C4] | > 10 | > 10 | 1 to 10 | 
9 | O=C(Cc1ccccc1[N+](=O)[O-])NCC1CC2c3ccccc3C1c1ccccc12 (stereo not drawn) [B4, [O-][N+](=O)c1ccccc1CC(=O)NCC2CC3c4ccccc4C2c5ccccc35] |  |  |  | IC50 (OATP1B1; full dose-response curve, eight concentrations, Hill1 fit, read-out: IC50 (μM) OATP1B1): ~10 µM; IC50 at 15 min (OATP1B1; human, pH 5.5): > 10 µM; IC50 (OATP1B3; [6]): 1 to 10 µM; IC50 (OATP1B3; full dose-response curve, eight concentrations, Hill1 fit, read-out: IC50 (μM) OATP1B3): ~10 µM; IC50 (OATP2B1; [7]): 1 to 10 µM; IC50 (OATP2B1; full dose-response curve, eight concentrations, Hill1 fit, read-out: IC50 (μM) OATP2B1): 2.4 µM and 2.37 µM
10 | O=C(NCc1ccccn1)c1ccc2c(c1)S(=O)(=O)c1ccccc1C2=O [B5, O=C(NCc1ccccn1)c2ccc3C(=O)c4ccccc4S(=O)(=O)c3c2] |  |  |  | IC50 (OATP1B1): > 10 µM; IC50 (μM) OATP1B3 (OATP1B3; [5]): Activated; IC50 (OATP2B1; [7]): 1 to 10 µM
11 | O=C(CSc1nc2cc(C(F)(F)F)ccc2n1Cc1ccccc1)c1ccc[nH]1 [B6, FC(F)(F)c1ccc2c(c1)nc(SCC(=O)c3ccc[nH]3)n2Cc4ccccc4] | > 10 | > 10 | > 10 | 
12 | CC1CCN(c2nnc(SCC(=O)NCC3COc4ccccc4O3)n2C2CC2)CC1 (stereo not drawn) [E4, CC1CCN(CC1)c2nnc(SCC(=O)NCC3COc4ccccc4O3)n2C5CC5] |  | > 10 | 1 to 10 | 
13 | CC(OC(=O)C1CCN(S(=O)(=O)c2ccc3c(c2)OCCO3)CC1)C(=O)Nc1cccc(C#N)c1 (stereo not drawn) [H3, CC(OC(=O)C1CCN(CC1)S(=O)(=O)c2ccc3OCCOc3c2)C(=O)Nc4cccc(c4)C#N] | 1 to 10 |  | 1 to 10 | 

Now from value to molecule, other results behind:

Row | IC50 (OATP1B1; [1]) [µM] | IC50 (OATP1B3; [2]) [µM] | IC50 (OATP2B1; [3]) [µM] | SMILES | other results
14 | 1 to 10 |  | 1 to 10 | Cc1cc(C)n2nc(SCc3ccccc3C(=O)NCCc3ccc4c(c3)OCCO4)nc2n1 [C2, Cc1cc(C)n2nc(SCc3ccccc3C(=O)NCCc4ccc5OCCOc5c4)nc2n1] | 
15 |  |  | 1 to 10 | CC(OC(=O)c1cc(Cl)c2c(c1)OCCCO2)C(=O)c1ccc2c(c1)NC(=O)CO2 (stereo not drawn) [D4, CC(OC(=O)c1cc(Cl)c2OCCCOc2c1)C(=O)c3ccc4OCC(=O)Nc4c3] | 
16 | > 10 | > 10 |  | O=C(OCC(=O)N(C1CCCCC1)C1CCCCC1)c1nn(-c2ccccc2)c(=O)c2ccccc12 [D5, O=C(COC(=O)C1=NN(C(=O)c2ccccc12)c3ccccc3)N(C4CCCCC4)C5CCCCC5] | 
17 | > 10 |  | 1 to 10 | O=C(CN1C(=O)NC2(CCCc3ccccc32)C1=O)Nc1nnc(C23CC4CC(CC(C4)C2)C3)s1 (stereo not drawn) [D6, O=C(CN1C(=O)NC2(CCCc3ccccc23)C1=O)Nc4nnc(s4)C56CC7CC(CC(C7)C5)C6] | 
18 |  | > 10 | 1 to 10 | O=C(Nc1ccccc1)c1ccccc1OCC(=O)N1CCN(C(=O)c2ccco2)CC1 [F2, O=C(COc1ccccc1C(=O)Nc2ccccc2)N3CCN(CC3)C(=O)c4occc4] | 
19 |  | > 10 | 1 to 10 | O=C(CCc1ncc(-c2c(F)cccc2F)o1)N1CCN(S(=O)(=O)c2ccccc2F)CC1 [G3, Fc1cccc(F)c1c2oc(CCC(=O)N3CCN(CC3)S(=O)(=O)c4ccccc4F)nc2] | 
